According to patent publication US12662489B2 (Sitryx Therapeutics Limited, priority 2023, dated 2026):

What was measured:
[1] = target: T1, MTHFD1 recombinant human enzyme (Homo sapiens, UniProt P11586); experiment: MTHFD1 inhibition assay (NAD(P)H-Glo luminescence); conditions: MTHFD1 IC50, recombinant human enzyme 200 nM, NADP, band
T1 sequence (P11586 2-291 limits assumed): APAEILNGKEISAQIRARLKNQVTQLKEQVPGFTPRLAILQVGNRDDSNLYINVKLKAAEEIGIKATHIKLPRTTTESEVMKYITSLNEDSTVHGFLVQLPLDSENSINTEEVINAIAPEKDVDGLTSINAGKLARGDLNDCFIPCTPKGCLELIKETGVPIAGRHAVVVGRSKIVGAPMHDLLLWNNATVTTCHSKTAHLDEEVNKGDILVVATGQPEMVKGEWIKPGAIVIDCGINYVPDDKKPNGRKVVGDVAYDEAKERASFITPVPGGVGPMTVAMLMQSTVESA

[2] = target: T2, MTHFD2 recombinant human enzyme (Homo sapiens, UniProt P13995); experiment: MTHFD2 inhibition assay (NAD(P)H-Glo luminescence); conditions: for MTHFD1/MTHFD2 IC50 ratio: selectivity of MTHFD2 inhibition over MTHFD1, band
T2 sequence (P13995 36-350): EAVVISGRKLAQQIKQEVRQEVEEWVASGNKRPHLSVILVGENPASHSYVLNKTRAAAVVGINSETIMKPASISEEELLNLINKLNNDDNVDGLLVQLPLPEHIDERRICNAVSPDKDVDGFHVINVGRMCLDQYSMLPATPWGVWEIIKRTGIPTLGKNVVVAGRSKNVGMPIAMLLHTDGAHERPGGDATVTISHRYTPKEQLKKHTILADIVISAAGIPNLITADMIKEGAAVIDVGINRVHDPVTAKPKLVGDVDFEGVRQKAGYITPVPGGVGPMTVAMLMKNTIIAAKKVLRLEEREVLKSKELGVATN

SMILES | IC50 [1] | IC50 [2] | MTHFD1/MTHFD2 IC50 ratio [2]
COC[C@H]1CN(c2ccc3c4c(c(=O)oc3c2C)CN(C(=O)c2cc(Cl)c(C(=O)NS(=O)(=O)N(C)C)c(N3C5CCC3CC5)c2)CC4)CCN1C [Example 80, (R)-2-(7-azabicyclo[2.2.1]heptan-7-yl)-6-chloro-N-(N,N-dimethylsulfamoyl)-4-(8-(3-(methoxymethyl)-4-methylpiperazin-1-yl)-7-methyl-5-oxo-1,3,4,5-tetrahydro-2H-chromeno[3,4-c]pyridine-3-carbonyl)benzamide] | 10 to 100 nM | 10 to 100 nM | G (^ 3 to 9.0)
COC[C@H]1CN(c2ccc3c4c(c(=O)oc3c2C)CN(C(=O)c2ccc(C(=O)NS(=O)(=O)C3(C)CC3)c(OC3CCC3)c2)CC4)CCN1C [Example 7, (R)-2-cyclobutoxy-4-(8-(3-(methoxymethyl)-4-methylpiperazin-1-yl)-7-methyl-5-oxo-1,3,4,5-tetrahydro-2H-chromeno[3,4-c]pyridine-3-carbonyl)-N-((1-methylcyclopropyl)sulfonyl)benzamide] | 10 to 100 nM | 10 to 100 nM | F (<3)
COC[C@H]1CN(c2cc(C)c3c4c(c(=O)oc3c2C)CN(C(=O)c2ccc(C(=O)NS(=O)(=O)N(C)C)c(OC3CCC3)c2F)CC4)CCN1C [Example 51, (R)-2-cyclobutoxy-N-(N,N-dimethylsulfamoyl)-3-fluoro-4-(8-(3-(methoxymethyl)-4-methylpiperazin-1-yl)-7,10-dimethyl-5-oxo-1,3,4,5-tetrahydro-2H-chromeno[3,4-c]pyridine-3-carbonyl)benzamide] | 1 to 10 nM | 1 to 10 nM | F (<3)
COC[C@H]1CN(c2cc(C)c3c4c(c(=O)oc3c2C)CN(C(=O)c2ccc(C(=O)NS(=O)(=O)N(C)C)c(N3CC5CC5C3)c2F)CC4)CCN1C (stereo partly drawn) [Example 72, 2-(3-azabicyclo[3.1.0]hexan-3-yl)-N-(N,N-dimethylsulfamoyl)-3-fluoro-4-(8-((R)-3-(methoxymethyl)-4-methylpiperazin-1-yl)-7,10-dimethyl-5-oxo-1,3,4,5-tetrahydro-2H-chromeno[3,4-c]pyridine-3-carbonyl)benzamide] | 1 to 10 nM | 1 to 10 nM | –
COC[C@H]1CN(c2cc(C)c3c4c(c(=O)oc3c2C)CN(C(=O)c2cc(OC3CCCC3)c(C(=O)NS(=O)(=O)N(C)C)c(N3CCCC3)c2)CC4)CCN1C [Example 127, (R)-2-(cyclopentyloxy)-N-(N,N-dimethylsulfamoyl)-4-(8-(3-(methoxymethyl)-4-methylpiperazin-1-yl)-7,10-dimethyl-5-oxo-1,3,4,5-tetrahydro-2H-chromeno[3,4-c]pyridine-3-carbonyl)-6-(pyrrolidin-1-yl)benzamide] | 100 to 1000 nM | 10 to 100 nM | H (>9.0 to 30)
COC[C@H]1CN(c2ccc3c4c(c(=O)oc3c2C)CN(C(=O)c2ccc(C(=O)NS(=O)(=O)N(C)C(C)C)c(N3CCCC3)c2)CC4)CCN1C [Example 31, (R)-N-(N-isopropyl-N-methylsulfamoyl)-4-(8-(3-(methoxymethyl)-4-methylpiperazin-1-yl)-7-methyl-5-oxo-1,3,4,5-tetrahydro-2H-chromeno[3,4-c]pyridine-3-carbonyl)-2-(pyrrolidin-1-yl)benzamide] | 10 to 100 nM | 1 to 10 nM | G (^ 3 to 9.0)
COC[C@H]1CN(c2cc(F)c3c4c(c(=O)oc3c2C)CN(C(=O)c2cc(OC)c(C(=O)NS(=O)(=O)N3C5CCC3CC5)cc2F)CC4)CCN1C [Example 305, (R)-N-((7-azabicyclo[2.2.1]heptan-7-yl)sulfonyl)-5-fluoro-4-(10-fluoro-8-(3-(methoxymethyl)-4-methylpiperazin-1-yl)-7-methyl-5-oxo-1,3,4,5-tetrahydro-2H-chromeno[3,4-c]pyridine-3-carbonyl)-2-methoxybenzamide] | 1000 to 5000 nM | 10 to 100 nM | J (>30)
COC[C@H]1CN(c2cc(C)c3c4c(c(=O)oc3c2C)CN(C(=O)c2ccc(C(=O)NS(=O)(=O)C3(C)CC3)c(N3CCCC(F)(F)C3)c2F)CC4)CCN1C [Example 76, (R)-2-(3,3-difluoropiperidin-1-yl)-3-fluoro-4-(8-(3-(methoxymethyl)-4-methylpiperazin-1-yl)-7,10-dimethyl-5-oxo-1,3,4,5-tetrahydro-2H-chromeno[3,4-c]pyridine-3-carbonyl)-N-((1-methylcyclopropyl)sulfonyl)benzamide] | 10 to 100 nM | 1 to 10 nM | –

More lines, now with the values ahead:

IC50 [1] | IC50 [2] | MTHFD1/MTHFD2 IC50 ratio [2] | SMILES
100 to 1000 nM | 10 to 100 nM | H (>9.0 to 30) | COC[C@H]1CN(c2cc(Cl)c3c4c(c(=O)oc3c2C)CN(C(=O)c2cc(N(C)C)c(C(=O)NS(=O)(=O)N3CCC5(COC5)C3)cc2F)CC4)CCN1C [Example 273, (R)-N-((2-oxa-6-azaspiro[3.4]octan-6-yl)sulfonyl)-4-(10-chloro-8-(3-(methoxymethyl)-4-methylpiperazin-1-yl)-7-methyl-5-oxo-1,3,4,5-tetrahydro-2H-chromeno[3,4-c]pyridine-3-carbonyl)-2-(dimethylamino)-5-fluorobenzamide]
100 to 1000 nM | 100 to 1000 nM | F (<3) | CCOc1c(C(=O)NS(=O)(=O)N2CCCCC2)ccc(C(=O)N2CCc3c(c(=O)oc4c(C)c(N5CCN(C)[C@@H](COC)C5)ccc34)C2)c1F [Example 198, (R)-2-ethoxy-3-fluoro-4-(8-(3-(methoxymethyl)-4-methylpiperazin-1-yl)-7-methyl-5-oxo-1,3,4,5-tetrahydro-2H-chromeno[3,4-c]pyridine-3-carbonyl)-N-(piperidin-1-ylsulfonyl)benzamide]
100 to 1000 nM | 10 to 100 nM | J (>30) | COC[C@H]1CN(c2cc(Cl)c3c4c(c(=O)oc3c2C)CN(C(=O)c2cc(N(C)C)c(C(=O)NS(=O)(=O)N3CCC(C(F)(F)F)CC3)cc2F)CC4)CCN1C [Example 293, (R)-4-(10-chloro-8-(3-(methoxymethyl)-4-methylpiperazin-1-yl)-7-methyl-5-oxo-1,3,4,5-tetrahydro-2H-chromeno[3,4-c]pyridine-3-carbonyl)-2-(dimethylamino)-5-fluoro-N-((4-(trifluoromethyl)piperidin-1-yl)sulfonyl)benzamide]
1000 to 5000 nM | 10 to 100 nM | H (>9.0 to 30) | COC[C@H]1CN(c2cc(C)c3c4c(c(=O)oc3c2C)CN(C(=O)c2cc(OC3CCCC3)c(C(=O)NS(=O)(=O)N(C)C)c(C(F)(F)F)c2)CC4)CCN1C [Example 153, (R)-2-(cyclopentyloxy)-N-(N,N-dimethylsulfamoyl)-4-(8-(3-(methoxymethyl)-4-methylpiperazin-1-yl)-7,10-dimethyl-5-oxo-1,3,4,5-tetrahydro-2H-chromeno[3,4-c]pyridine-3-carbonyl)-6-(trifluoromethyl)benzamide]
> 5000 nM | 1000 to 5000 nM | F (<3) | COC[C@H]1CN(c2cc(C)c3c4c(c(=O)oc3c2C)CN(C(=O)c2cc(C(=O)NS(=O)(=O)N3CCCC3)c3c(c2F)OC2(CCC2)O3)CC4)CCN1C [Example 168, (R)-4-fluoro-5-(8-(3-(methoxymethyl)-4-methylpiperazin-1-yl)-7,10-dimethyl-5-oxo-1,3,4,5-tetrahydro-2H-chromeno[3,4-c]pyridine-3-carbonyl)-N-(pyrrolidin-1-ylsulfonyl)spiro[benzo[d][1,3]dioxole-2,1′-cyclobutane]-7-carboxamide]
100 to 1000 nM | 10 to 100 nM | J (>30) | CCOc1cc(C(=O)N2CCc3c(c(=O)oc4c(C)c(N5CCN(C)[C@@H](COC)C5)cc(Cl)c34)C2)c(F)cc1C(=O)NS(=O)(=O)N1CC2CCC(C1)O2 [Example 301, N-((8-oxa-3-azabicyclo[3.2.1]octan-3-yl)sulfonyl)-4-(10-chloro-8-((R)-3-(methoxymethyl)-4-methylpiperazin-1-yl)-7-methyl-5-oxo-1,3,4,5-tetrahydro-2H-chromeno[3,4-c]pyridine-3-carbonyl)-2-ethoxy-5-fluorobenzamide]
100 to 1000 nM | 10 to 100 nM | H (>9.0 to 30) | COC[C@H]1CN(c2cc(Cl)c3c4c(c(=O)oc3c2C)CN(C(=O)c2cc(N(C)C)c(C(=O)NS(=O)(=O)N(C3CC3)C3CC3)cc2F)CC4)CCN1C [Example 277, (R)-4-(10-chloro-8-(3-(methoxymethyl)-4-methylpiperazin-1-yl)-7-methyl-5-oxo-1,3,4,5-tetrahydro-2H-chromeno[3,4-c]pyridine-3-carbonyl)-N-(N,N-dicyclopropylsulfamoyl)-2-(dimethylamino)-5-fluorobenzamide]
> 5000 nM | 100 to 1000 nM | H (>9.0 to 30) | COC[C@H]1CN(c2cc(C)c3c4c(c(=O)oc3c2C)CN(C(=O)c2cc(N(C)C)c(C(=O)NS(=O)(=O)N3CCCC3)cc2C(F)(F)F)CC4)CCN1C [Example 152, (R)-2-(dimethylamino)-4-(8-(3-(methoxymethyl)-4-methylpiperazin-1-yl)-7,10-dimethyl-5-oxo-1,3,4,5-tetrahydro-2H-chromeno[3,4-c]pyridine-3-carbonyl)-N-(pyrrolidin-1-ylsulfonyl)-5-(trifluoromethyl)benzamide]
